Results: PubChem BioAssay AID248 (DTP/NCI, 2004)
Where “and” joins values, the source holds several entries; their conditions need not be identical. Equal entries are not always repeated. Toxic doses and inconclusive results are not listed. Rule as the data show it: active = T/C of 150% or more; inactive = T/C below 125%.

Test system: L1210 leukemia ip in BDF1 mice, survival T/C
Assay: NCI In Vivo Anticancer Drug Screen. Data for tumor model L1210 Leukemia (intraperitoneal) in B6D2F1 (BDF1) mice
Conditions: endpoint: mean survival time, higher = longer survival
Procedure, shortened: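 Each compound was tested against a transplantable tumor grown in mice. The endpoint was survival, with treated animals benchmarked against vehicle controls as a simple ratio.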

[1] = dose: 100.0 mg/kg/injection, schedule: Q04DX002 (ip), vehicle: saline
[2] = dose: 200.0 mg/kg/injection, schedule: Q04DX002 (ip), vehicle: saline
[3] = dose: 400.0 mg/kg/injection, schedule: Q04DX002 (ip), vehicle: saline
[4] = dose: 100.0 mg/kg/injection, schedule: Q04DX002 (ip), vehicle: Klucel (hydroxypropylcellulose) (HPC)
[5] = dose: 200.0 mg/kg/injection, schedule: Q04DX002 (ip), vehicle: Klucel (hydroxypropylcellulose) (HPC)
[6] = dose: 400.0 mg/kg/injection, schedule: Q04DX002 (ip), vehicle: Klucel (hydroxypropylcellulose) (HPC)
[7] = dose: 100.0 mg/kg/injection, schedule: Q01DX009 (ip), vehicle: Klucel (hydroxypropylcellulose) (HPC)
[8] = dose: 200.0 mg/kg/injection, schedule: Q01DX009 (ip), vehicle: Klucel (hydroxypropylcellulose) (HPC)
[9] = dose: 100.0 mg/kg/injection, schedule: Q01DX001 (ip), vehicle: Klucel (hydroxypropylcellulose) (HPC)
[10] = dose: 200.0 mg/kg/injection, schedule: Q01DX001 (ip), vehicle: Klucel (hydroxypropylcellulose) (HPC)
[11] = dose: 100.0 mg/kg/injection, schedule: Q04DX003 (ip), vehicle: saline with Tween-80
[12] = dose: 200.0 mg/kg/injection, schedule: Q04DX003 (ip), vehicle: saline with Tween-80
[13] = dose: 400.0 mg/kg/injection, schedule: Q04DX003 (ip), vehicle: saline with Tween-80

Measured: T/C

CC[N+](C)(CC)CCCN(C)C(=O)C(c1ccccc1)c1ccccc1
inactive: dose: 12.5 mg/kg/injection, schedule: Q01DX001 (ip), vehicle: saline 92 % of control | dose: 12.5 mg/kg/injection, schedule: Q04DX003 (ip), vehicle: saline 98 % of control | dose: 25.0 mg/kg/injection, schedule: Q01DX001 (ip), vehicle: saline 103 % of control | dose: 25.0 mg/kg/injection, schedule: Q04DX003 (ip), vehicle: saline 93 % of control | dose: 50.0 mg/kg/injection, schedule: Q01DX001 (ip), vehicle: saline 92 % of control | dose: 50.0 mg/kg/injection, schedule: Q04DX003 (ip), vehicle: saline 93 % of control | dose: 75.0 mg/kg/injection, schedule: Q04DX003 (ip), vehicle: saline 97 % of control

CN(C)C1CS(=O)(=O)CC1[N+](C)(C)C (stereo unspecified)
inactive: [1] 118 % of control | [2] 89 % of control | [3] 110 % of control

Cc1ccc(C(=O)OCc2ccccc2CN2CCCCC2C)cc1 (stereo unspecified)
inactive: [4] 94 % of control | [5] 108 % of control | [6] 90 % of control

CNC(=S)N/N=C(\C=N\NC(=S)NC)c1ccc(-c2ccccc2)cc1
inactive: [4] 89 % of control | [5] 92 % of control | [6] 92 % of control

Cc1nc2ccc(N(C)C)cc2c2c1Cc1c(C)nc3ccc(N(C)C)cc3c1O2
inactive: dose: 100.0 mg/kg/injection, schedule: Q01DX009 (ip), vehicle: saline with Tween-80 95 % of control | dose: 200.0 mg/kg/injection, schedule: Q01DX009 (ip), vehicle: saline with Tween-80 92 % of control | dose: 400.0 mg/kg/injection, schedule: Q01DX009 (ip), vehicle: saline with Tween-80 110 % of control

N#CCCCc1ccccc1
inactive: dose: 50.0 mg/kg/injection, schedule: Q01DX009 (ip), vehicle: Klucel (hydroxypropylcellulose) (HPC) 96 % of control | [7] 104 % of control | [8] 112 % of control

CC1CCCCN1Cc1ccccc1COC(=O)c1ccc(Cl)cc1 (stereo unspecified)
inactive: [9] 98 % of control | [10] 107 % of control

CCCCC[C@H](O)/C=C/[C@H]1[C@H](O)CC(=O)[C@@H]1C/C=C\CCCC(=O)O
inactive: dose: 0.37 mg/kg/injection, schedule: Q04DX002 (ip), vehicle: Klucel (hydroxypropylcellulose) (HPC) 100 % of control | dose: 0.75 mg/kg/injection, schedule: Q04DX002 (ip), vehicle: Klucel (hydroxypropylcellulose) (HPC) 103 % of control | dose: 1.5 mg/kg/injection, schedule: Q04DX002 (ip), vehicle: Klucel (hydroxypropylcellulose) (HPC) 111 % of control | dose: 3.0 mg/kg/injection, schedule: Q04DX002 (ip), vehicle: Klucel (hydroxypropylcellulose) (HPC) 118 % of control | dose: 6.0 mg/kg/injection, schedule: Q04DX002 (ip), vehicle: Klucel (hydroxypropylcellulose) (HPC) 96 % of control | dose: 12.0 mg/kg/injection, schedule: Q04DX002 (ip), vehicle: Klucel (hydroxypropylcellulose) (HPC) 96 % of control | dose: 24.0 mg/kg/injection, schedule: Q04DX002 (ip), vehicle: Klucel (hydroxypropylcellulose) (HPC) 100 % of control | dose: 25.0 mg/kg/injection, schedule: Q04DX002 (ip), vehicle: saline with Tween-80 98 % of control | dose: 50.0 mg/kg/injection, schedule: Q04DX002 (ip), vehicle: saline with Tween-80 98 % of control | dose: 100.0 mg/kg/injection, schedule: Q04DX002 (ip), vehicle: saline with Tween-80 105 % of control | dose: 200.0 mg/kg/injection, schedule: Q04DX002 (ip), vehicle: saline with Tween-80 102 % of control | dose: 400.0 mg/kg/injection, schedule: Q04DX002 (ip), vehicle: saline with Tween-80 98 % of control

CCCOC(CCC(=O)NC(C)(C)C)CC(=O)NC(C)(C)C (stereo unspecified)
inactive: [7] 95 % of control | dose: 100.0 mg/kg/injection, schedule: Q04DX003 (ip), vehicle: Klucel (hydroxypropylcellulose) (HPC) 103 % of control | [8] 90 % of control | dose: 200.0 mg/kg/injection, schedule: Q04DX003 (ip), vehicle: Klucel (hydroxypropylcellulose) (HPC) 97 % of control | dose: 400.0 mg/kg/injection, schedule: Q01DX009 (ip), vehicle: Klucel (hydroxypropylcellulose) (HPC) 90 % of control | dose: 400.0 mg/kg/injection, schedule: Q04DX003 (ip), vehicle: Klucel (hydroxypropylcellulose) (HPC) 93 % of control

CC12CCC3C(CCC4CC5SC5CC43C)C1CCC2O (stereo unspecified)
inactive: [4] 108 % of control | [5] 111 % of control | [6] 101 % of control

C/C(=C\C(C)C)C1(C)C(=O)NC(=O)NC1=O
inactive: dose: 75.0 mg/kg/injection, schedule: Q01DX001 (ip), vehicle: other 96 % of control | dose: 150.0 mg/kg/injection, schedule: Q01DX001 (ip), vehicle: other 109 % of control | dose: 300.0 mg/kg/injection, schedule: Q01DX001 (ip), vehicle: other 105 % of control

O=C(NCCc1nc(-c2nc(C(=O)O)cs2)cs1)c1ccccc1
inactive: [11] 103 % of control | [12] 94 % of control | [13] 92 % of control

CC12CC(Br)C(Br)CC1(C)O2 (stereo unspecified)
inactive: dose: 25.0 mg/kg/injection, schedule: Q04DX002 (ip), vehicle: gum acacia 96 % of control | dose: 50.0 mg/kg/injection, schedule: Q04DX002 (ip), vehicle: gum acacia 100 % of control | dose: 100.0 mg/kg/injection, schedule: Q04DX002 (ip), vehicle: gum acacia 104 % of control

CC(C)c1ccc(OS(=O)(=O)c2cccc([N+](=O)[O-])c2)cc1
inactive: [11] 100 % of control | [12] 100 % of control | [13] 98 % of control

O=C1CCCCC1(CCc1ccncc1)CCc1ccncc1
inactive: dose: 44.0 mg/kg/injection, schedule: Q01DX Z (ip), vehicle: methylcellulose (MC) 96 % of control | dose: 66.0 mg/kg/injection, schedule: Q01DX Z (ip), vehicle: methylcellulose (MC) 102 % of control | dose: 100.0 mg/kg/injection, schedule: Q01DX Z (ip), vehicle: methylcellulose (MC) 109 % of control

C1OCC2OC12 (stereo unspecified)
inactive: dose: 100.0 mg/kg/injection, schedule: Q01DX009 (ip), vehicle: saline 97 % of control and 88 % of control | [1] 97 % of control and 102 % of control | dose: 100.0 mg/kg/injection, schedule: Q04DX003 (ip), vehicle: saline 101 % of control | dose: 200.0 mg/kg/injection, schedule: Q01DX009 (ip), vehicle: saline 100 % of control and 87 % of control | [2] 100 % of control and 101 % of control | dose: 200.0 mg/kg/injection, schedule: Q04DX003 (ip), vehicle: saline 109 % of control | dose: 400.0 mg/kg/injection, schedule: Q01DX009 (ip), vehicle: saline 105 % of control and 87 % of control | [3] 104 % of control and 111 % of control | dose: 400.0 mg/kg/injection, schedule: Q04DX003 (ip), vehicle: saline 101 % of control

Nc1ccc2cc(O)ccc2c1
inactive: dose: 50.0 mg/kg/injection, schedule: Q01DX009 (ip), vehicle: saline with Tween-80 94 % of control

NNC(=S)N/N=C/c1ccccc1
inactive: [9] 93 % of control | [10] 93 % of control | dose: 400.0 mg/kg/injection, schedule: Q01DX001 (ip), vehicle: Klucel (hydroxypropylcellulose) (HPC) 100 % of control

CC(C)N(CCC(=O)CC12CC3CC(CC(C3)C1)C2)C(C)C
inactive: dose: 25.0 mg/kg/injection, schedule: Q04DX002 (ip), vehicle: saline 92 % of control | dose: 50.0 mg/kg/injection, schedule: Q04DX002 (ip), vehicle: saline 98 % of control | [1] 95 % of control and 97 % of control
